“Also recorded” adds a separate entry of the source.
Columns and labels:
[1] = Halide fluorescence quenching (Stern-Volmer); format: physicochemical
Procedure: Absorbance Spectra were recorded on Tecan Infinite M200 Pro UV-vis spectroscopy, and fluorescence spectra were recorded on Horiba FluoroMax-4 fluorospectroscopy at concentrations below 0.1 O.D. unless otherwise indicated. Quantum Yields were measured on the Quantum φ Integrating Sphere accessory to the FluoroMax-4, while lifetime measurements were determined through the Time-Correlation Single Photon Counting (TCSPC) accessory to the FluroMax-4. TCSPC was utilized in conjunction with NanoLED pulsed diode light source with peak excitation wavelength at 352 nm and at 10,000 counts peak preset. Emission was collected at the fluorescence λmax, unless otherwise indicated. For all pH-dependence experiments, sample pH was adjusted with sulfuric acid or sodium hydroxide. For all chloride-dependent quenching experiments, magnesium chloride hexahydrate (Sigma Aldrich) was used.
When a fluorophore of [F] absorbs light energy, excitation raises a sub-population of [F] to the excited state, [F*], which then rapidly lose energy along radiative relaxation (kr) or non-radiative relaxation (knr) according to equation 7. If a quencher forms a complex with the excited fluorophore, an extra non-radiative component, kq, is added to equation 7 to account for the additional relaxation pathway that is a function of quencher concentration and its association constant.
[formula] Thus the quenching of fluorescence can be quantitatively analyzed by comparing the affected lifetimes. The Stern-Volmer (SV) relationship is used to determine kq, the bimolecular quenching rate constant for the diffusion coefficients of the fluorophore and quencher, by deriving a plot of τ0/τ versus [Q]:
[formula] Thus the linear slope of the SV plot, KSV, measures the efficiency of the quencher. Since sulfuric acid was used to study proton-induced quenching, the pH value was a better indicator of [H^+] due to incomplete dissociation of sulfuric acid at high concentrations. In the case of multiple quenchers, as will be discussed in this paper, equation 7 must include additional kq terms that result in modified form of equation 12 below:
[formula] If the two quenchers are act independently, the quencher of known quenching rate and concentration can be combined into the Y-intercept term in order to determine the quenching rate of the second, unknown quencher. […]
To translate halide quenching into quantitative sensing applications, a modified Stern-Volmer equation (Equation 14) was used to linearize the effects of two quenchers, protons and the halide being studied, on the fluorescence of CA-Cysteine. […]
Since the measured sample fluorescence is quenched by both protons and halides, the unquenched fluorescence, Io, was defined as the fluorescence of the neutral state CA-Cysteine in the absence of additional proton or halide quenchers. As mentioned above, the effects of protolytic equilibria stabilize around pH 2.2, where CA-Cysteine undergoes 99% conversion from the dianion state and is marked by constant fluorescence intensities (FIG. 13). […] Thus we chose the fluorescence intensity at pH 2.2 (in the absence of halides) as the unquenched reference signal, Io. IH,Cl in equation 23 is the sample fluorescence at the pH and halide concentration indicated. […]

[2] = Chlorine sensing by fluorescence titration; format: physicochemical
From the text: This chlorine detection method seems to be much more sensitive than for halide detection, as chlorine in tap water diluted 1:2 can be measured. Furthermore, because measurement is based on the titration point, the presence of halides in solution would only lower the slope of the fluorescence plots without affecting the titration point. In reverse order of what observed results for halide quenching, sensing of bromine is much less sensitive than chlorine. Visual confirmation of the titration point is possible with a UV lamp, allowing for a low-cost and low-tech method of chlorine determination. It should also be noted that by varying the use of amine-containing molecules used in the syntheses of fluorophores described herein, it was possible to tune the chloride sensing at neutral pH.

3T3 cells = assay: Fluorescence cell labelling, confocal microscopy; format: cell-based, mouse; conditions: 500 μg/ml for 24 hours; DAPI, FITC, Cy3 channels

- fluorescence quenching by magnesium chloride ([1]; pH 8.2): no significant quenching
- fluorescence quenching by magnesium chloride ([1]; strongly acidic conditions (pH 2.4)): quenched
- sensitivity to chlorine [2]: sensitive to chlorine
SMILES: O=C(O)c1cc2n(c(=O)c1)C(C(=O)O)CS2 (stereo not drawn) [CA-Cys]
- fluorescence quenching by magnesium sulfate and sodium sulfate [1]: did not quench fluorescence under any conditions
- fluorescence quenching by bromide and iodide ([1]; compared with chloride): quenched by bromide and iodide at even greater affinities
- fluorescence from cells after uptake (3T3 cells): Strong fluorescence was observed; also recorded: strong DAPI-channel fluorescence
